The target in test [1] is T1, HiBiT-BRM fusion protein in stable HeLa cell line (Homo sapiens, UniProt P51531).
T1 construct: expressed in transfected cells
In words: HiBiT-BRM cell-based degradation assay (Nano-Glo HiBiT Lytic Detection, 24 h). On the set-up: DC50: scale not given here. The following applies: HeLa HiBiT-BRM cells; for DC50: read-out: BRM HiBit Degradation IC50; for BRM HiBit Degradation Maximum (%): top dose 30 μM. On the procedure: (§1) Procedure: A stable HeLa cell line expressing HiBiT-BRM was generated. On day 0, 5000 cells were seeded in 40 μL of media into each well of 384-well cell culture plates. On day 1, cells were treated with 120 nL DMSO or 120 nL of 3-fold serially DMSO-diluted compounds (10 points in duplicate with 30 μM as final top dose). Subsequently plates were incubated for 24 h in a standard tissue culture incubator and equilibrated at room temperature for 15 minutes. Nano-Glo HiBiT Lytic Detection System (Promega N3050) reagent was freshly prepared and 20 ul was added to each well. Upon addition of this LgBit-containing reagent, the HiBiT and LgBiT proteins associate to form the luminescent NanoBiT luciferase. The plates were shaken for 10 minutes at room temperature and the bioluminescence read using an EnVision plate reader (PerkinElmer).
The degradation % was calculated using the following formula: % degradation=100%−100%×(Lumsample−LumLC)/(LumHC−LumLC). DMSO treated cells are employed as High Control (HC) and 2 μM of a known BRM/BRG1 degrader standard treated cells are employed as Low Control (LC).

The target in test [2] is T2, HiBit-BRG1 fusion protein in stable HeLa cell line expressing HiBit-BRG1 and LgBit (Homo sapiens, UniProt P51532).
T2 construct: expressed in transfected cells
The test is described as follows: HiBiT-BRG1 cell-based degradation assay (Nano-Glo HiBiT, 24 h). The conditions noted are these: HeLa HiBit-BRG1/LgBit cells; for DC50: read-out: BRMG1 HiBit Degradation IC50; for Dmax: top dose 30 μM, read-out: BRG1 HiBit Degradation Maximum (%). On the procedure: as §1, with “On day 1, cells were treated with 120 nL DMSO or 120 nL of 3-fold serially DMSO-diluted compounds (10 points in duplicate with 30 μM as final top dose).” left out, “(PerkinElmer). For measurement of BRG1 degradation, a stable HeLa cell line expressing HiBit-BRG1 and LgBit was generated. The same protocol as above was then followed. The degradation % was calculated using the following formula: % degradation=100%−100%×(Lumsample−LumLC)/(LumHC−LumLC). DMSO treated cells are employed as High Control (HC) and 2 μM of a known BRM/BRG1 degrader standard treated cells are employed as Low Control (LC).” for “(PerkinElmer).”
(In general: The HiBiT peptide binds its large partner to form an active luciferase.)

The structures appear in SMILES notation.

T2 sequence (P51532 whole entry, the tested form may be a part): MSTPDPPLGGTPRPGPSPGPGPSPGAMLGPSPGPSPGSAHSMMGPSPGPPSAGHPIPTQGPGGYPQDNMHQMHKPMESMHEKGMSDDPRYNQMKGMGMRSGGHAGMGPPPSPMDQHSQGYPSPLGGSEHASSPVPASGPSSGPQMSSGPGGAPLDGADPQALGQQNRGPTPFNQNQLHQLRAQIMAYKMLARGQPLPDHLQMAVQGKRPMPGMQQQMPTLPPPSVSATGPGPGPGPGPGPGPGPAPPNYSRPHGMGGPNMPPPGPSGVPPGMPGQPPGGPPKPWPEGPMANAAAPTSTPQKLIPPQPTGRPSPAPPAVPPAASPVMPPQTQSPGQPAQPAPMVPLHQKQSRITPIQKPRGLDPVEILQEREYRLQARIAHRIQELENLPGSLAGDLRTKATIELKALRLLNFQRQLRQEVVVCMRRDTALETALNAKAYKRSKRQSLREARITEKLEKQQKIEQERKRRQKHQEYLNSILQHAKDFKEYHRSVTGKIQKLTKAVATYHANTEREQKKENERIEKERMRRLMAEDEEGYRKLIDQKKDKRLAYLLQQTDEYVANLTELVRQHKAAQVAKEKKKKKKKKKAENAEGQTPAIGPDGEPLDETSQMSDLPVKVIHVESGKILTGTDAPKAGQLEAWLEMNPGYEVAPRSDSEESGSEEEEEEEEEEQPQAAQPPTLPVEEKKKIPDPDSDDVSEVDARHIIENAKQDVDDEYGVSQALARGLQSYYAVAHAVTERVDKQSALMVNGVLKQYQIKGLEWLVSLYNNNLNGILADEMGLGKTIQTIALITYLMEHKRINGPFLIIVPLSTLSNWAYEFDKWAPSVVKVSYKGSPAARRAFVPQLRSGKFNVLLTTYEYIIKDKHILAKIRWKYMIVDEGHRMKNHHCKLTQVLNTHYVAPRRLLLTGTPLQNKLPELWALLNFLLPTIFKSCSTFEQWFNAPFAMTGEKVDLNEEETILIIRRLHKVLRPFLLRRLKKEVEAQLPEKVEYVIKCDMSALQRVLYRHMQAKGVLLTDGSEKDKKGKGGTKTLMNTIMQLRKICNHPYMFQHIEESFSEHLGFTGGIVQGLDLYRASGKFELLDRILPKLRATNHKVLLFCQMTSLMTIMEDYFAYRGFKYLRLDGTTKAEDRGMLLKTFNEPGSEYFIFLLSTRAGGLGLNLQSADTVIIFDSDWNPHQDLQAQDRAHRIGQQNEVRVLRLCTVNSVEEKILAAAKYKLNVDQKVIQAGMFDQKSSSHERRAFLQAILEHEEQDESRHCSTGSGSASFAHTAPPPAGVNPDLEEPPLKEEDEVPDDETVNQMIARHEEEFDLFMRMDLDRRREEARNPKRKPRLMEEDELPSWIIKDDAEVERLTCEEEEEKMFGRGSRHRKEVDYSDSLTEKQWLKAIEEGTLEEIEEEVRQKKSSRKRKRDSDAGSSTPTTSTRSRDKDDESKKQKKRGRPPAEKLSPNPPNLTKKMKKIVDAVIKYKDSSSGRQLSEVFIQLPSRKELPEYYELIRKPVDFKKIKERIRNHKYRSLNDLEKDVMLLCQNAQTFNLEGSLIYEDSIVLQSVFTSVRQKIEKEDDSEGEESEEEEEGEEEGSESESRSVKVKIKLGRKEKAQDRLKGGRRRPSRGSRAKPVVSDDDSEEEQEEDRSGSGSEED
T1 sequence (P51531 whole entry, the tested form may be a part): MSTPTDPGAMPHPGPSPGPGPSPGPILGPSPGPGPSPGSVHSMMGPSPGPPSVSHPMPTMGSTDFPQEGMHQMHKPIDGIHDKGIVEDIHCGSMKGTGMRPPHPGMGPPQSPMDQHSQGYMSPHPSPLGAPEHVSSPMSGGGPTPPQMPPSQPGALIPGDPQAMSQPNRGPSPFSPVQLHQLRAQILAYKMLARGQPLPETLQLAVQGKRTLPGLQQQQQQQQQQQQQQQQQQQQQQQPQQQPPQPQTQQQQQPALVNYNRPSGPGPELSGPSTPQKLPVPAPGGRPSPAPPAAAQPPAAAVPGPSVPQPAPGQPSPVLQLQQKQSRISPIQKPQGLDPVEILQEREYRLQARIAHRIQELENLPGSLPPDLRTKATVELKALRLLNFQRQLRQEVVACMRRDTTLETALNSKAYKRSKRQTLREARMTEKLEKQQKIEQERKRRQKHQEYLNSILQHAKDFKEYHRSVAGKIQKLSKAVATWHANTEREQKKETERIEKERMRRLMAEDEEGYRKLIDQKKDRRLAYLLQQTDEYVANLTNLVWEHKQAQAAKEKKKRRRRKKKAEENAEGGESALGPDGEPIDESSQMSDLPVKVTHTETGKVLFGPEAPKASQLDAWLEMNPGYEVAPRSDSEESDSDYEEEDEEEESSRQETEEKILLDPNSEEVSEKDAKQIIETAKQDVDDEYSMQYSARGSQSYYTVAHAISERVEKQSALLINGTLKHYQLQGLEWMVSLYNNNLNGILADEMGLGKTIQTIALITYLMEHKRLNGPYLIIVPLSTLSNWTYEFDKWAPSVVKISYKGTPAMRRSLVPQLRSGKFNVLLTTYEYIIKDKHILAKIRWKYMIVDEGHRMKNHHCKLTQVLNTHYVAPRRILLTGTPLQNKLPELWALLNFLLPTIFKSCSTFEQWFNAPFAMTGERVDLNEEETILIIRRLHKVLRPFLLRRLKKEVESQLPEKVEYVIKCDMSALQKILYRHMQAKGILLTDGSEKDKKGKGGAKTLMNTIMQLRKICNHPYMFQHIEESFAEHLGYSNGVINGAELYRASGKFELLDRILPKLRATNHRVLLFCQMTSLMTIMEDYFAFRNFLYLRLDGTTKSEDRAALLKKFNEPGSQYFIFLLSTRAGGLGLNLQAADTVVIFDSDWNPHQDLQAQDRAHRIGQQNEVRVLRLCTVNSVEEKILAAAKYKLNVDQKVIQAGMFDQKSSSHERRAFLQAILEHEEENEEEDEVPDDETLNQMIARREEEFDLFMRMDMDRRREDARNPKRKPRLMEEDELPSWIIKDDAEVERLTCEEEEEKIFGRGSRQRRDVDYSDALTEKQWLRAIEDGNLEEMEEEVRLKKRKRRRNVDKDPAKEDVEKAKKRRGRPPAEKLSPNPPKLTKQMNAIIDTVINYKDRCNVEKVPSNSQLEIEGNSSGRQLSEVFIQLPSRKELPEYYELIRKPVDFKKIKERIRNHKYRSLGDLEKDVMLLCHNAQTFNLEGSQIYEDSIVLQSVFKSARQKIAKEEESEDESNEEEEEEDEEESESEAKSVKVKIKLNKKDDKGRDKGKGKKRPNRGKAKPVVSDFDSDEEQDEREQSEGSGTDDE

Take `Cc1ncsc1-c1ccc([C@H](C)NC(=O)[C@@H]2C[C@@H](O)CN2C(=O)C(c2cc(-c3cnc(N4CCC5(CC4)CC(c4ccc6cc(-c7ccccc7O)nnc6c4)C5)nc3)no2)C(C)C)cc1` (mixture of isomers) [Compound 65, (2S,4R)-4-hydroxy-1-(2-(3-(2-(2-(3-(2-hydroxyphenyl)cinnolin-7-yl)-7-azaspiro[3.5]nonan-7-yl)pyrimidin-5-yl)isoxazol-5-yl)-3-methylbutanoyl)-N-((S)-1-(4-(4-methylthiazol-5-yl)phenyl)ethyl)pyrrolidine-2-carboxamide]: in test [1], the DC50 is less than 10 nM and the “BRM HiBit Degradation Maximum (%)” value is recorded as “A (“A” indicates maximum degradation ≥75%)”. Also, in test [2], the DC50 was more than 10 nM and the Dmax was more than 75%.

As for `Cc1ncsc1-c1ccc([C@H](C)NC(=O)[C@@H]2C[C@@H](O)CN2C(=O)[C@@H](c2cc(N3CC4(CN(c5ccc6cc(-c7ccccc7O)nnc6c5)C4)C3)no2)C(C)C)cc1` (single isomer, unassigned) [Compound 51], in test [1], the DC50 was less than 10 nM and the “BRM HiBit Degradation Maximum (%)” value is “A (“A” indicates maximum degradation ≥75%)”.

For `Cc1ncsc1-c1ccc([C@H](C)NC(=O)[C@@H]2C[C@@H](O)CN2C(=O)[C@@H](c2cn(-c3ccc4nnc(-c5ccccc5O)cc4c3)nn2)C(C)C)cc1` (single isomer, unassigned) [Compound 161], in test [1], the DC50 is less than 10 nM and the “BRM HiBit Degradation Maximum (%)” value was “A (“A” indicates maximum degradation ≥75%)”. Besides, in test [2], the DC50 is less than 10 nM and the Dmax is more than 75%.

As for `Cc1ncsc1-c1ccc([C@H](C)NC(=O)[C@@H]2C[C@@H](O)CN2C(=O)[C@@H](c2cc(N3CCC4(CC3)CC(Oc3ccc5nnc(-c6ccccc6O)cc5c3)C4)no2)C(C)C)cc1` (single isomer, unassigned) [Compound 185], in test [1], the DC50 was less than 10 nM and the “BRM HiBit Degradation Maximum (%)” value was “A (“A” indicates maximum degradation ≥75%)”. Also, in test [2], the DC50 was less than 10 nM and the Dmax was more than 75%.

Consider `Cc1ncsc1-c1ccc([C@H](C)NC(=O)[C@@H]2C[C@@H](O)CN2C(=O)[C@@H](c2cc(N3CC4(CN(c5ccc6cc(-c7ccccc7O)nnc6c5)C4)C3)n(C)n2)C(C)C)cc1` (single isomer, unassigned) [Compound 194], for which, in test [1], the DC50 is more than 100 nM and the “BRM HiBit Degradation Maximum (%)” value was “A (“A” indicates maximum degradation ≥75%)”. The Dmax in test [2] is less than 50%.

For the compound `Cc1ncsc1-c1ccc([C@H](C)NC(=O)[C@@H]2C[C@@H](O)CN2C(=O)[C@@H](c2cc(C3CC4(C3)CN(c3ccc5nnc(-c6ccccc6O)cc5c3)C4)no2)C(C)C)cc1` (single isomer, unassigned) [Compound 200], in test [1], the DC50 is less than 10 nM and the “BRM HiBit Degradation Maximum (%)” value was “A (“A” indicates maximum degradation ≥75%)”. In addition, in test [2], the DC50 is less than 10 nM and the Dmax was more than 75%.

For the compound `Cc1ncsc1-c1ccc([C@H](C)NC(=O)[C@@H]2C[C@@H](O)CN2C(=O)[C@H](C2CC2)n2cc(N3CC4(CN(c5ccc6cc(-c7ccccc7O)nnc6c5)C4)C3)nn2)cc1` (single isomer, unassigned) [Compound 210], in test [1], the DC50 was less than 10 nM and the “BRM HiBit Degradation Maximum (%)” value was “A (“A” indicates maximum degradation ≥75%)”.

Regarding `Cc1ncsc1-c1ccc([C@H](C)NC(=O)[C@@H]2C[C@@H](O)CN2C(=O)C(c2cc(N3CCC4(CCC(c5ccc6nnc(-c7ccccc7O)cc6c5)CC4)CC3)no2)C(C)C)cc1` (stereo in doubt) [Compound 63, (2S,4R)-4-hydroxy-1-((S)-2-(3-(9-(3-(2-hydroxyphenyl)cinnolin-6-yl)-3-azaspiro[5.5]undecan-3-yl)isoxazol-5-yl)-3-methylbutanoyl)-N-((S)-1-(4-(4-methylthiazol-5-yl)phenyl)ethyl)pyrrolidine-2-carboxamide], in test [1], the DC50 is less than 10 nM and the “BRM HiBit Degradation Maximum (%)” value is “A (“A” indicates maximum degradation ≥75%)”. In addition, in test [2], the DC50 was less than 10 nM and the Dmax is more than 75%.

On to `Cc1ncsc1-c1ccc(C(C)NC(=O)C2CC(O)CN2C(=O)[C@@H](c2cc(N3CCN([C@@H]4CCN(Cc5cc6nnc(-c7ccccc7O)cc6cc5Cl)CC4(F)F)CC3)no2)C(C)C)cc1` (stereo in doubt) [Compound 215, (2R,4S)-1-((R)-2-(3-(4-((R)-1-((6-chloro-3-(2-hydroxyphenyl)cinnolin-7-yl)methyl)-3,3-difluoropiperidin-4-yl)piperazin-1-yl)isoxazol-5-yl)-3-methylbutanoyl)-4-hydroxy-N-((R)-1-(4-(4-methylthiazol-5-yl)phenyl)ethyl)pyrrolidine-2-carboxamide], for which, in test [1], the DC50 was less than 10 nM and the “BRM HiBit Degradation Maximum (%)” value was “A (“A” indicates maximum degradation ≥75%)”. Moreover, in test [2], the Dmax is less than 50%.

`Cc1ncsc1-c1ccc(C(C)NC(=O)C2CC(O)CN2C(=O)[C@@H](c2cc(N3CCN([C@H]4CCN(Cc5cc6nnc(-c7ccccc7O)cc6cc5Cl)CC4(F)F)CC3)no2)C(C)C)cc1` (stereo in doubt) [Compound 216, (2R,4S)-1-((R)-2-(3-(4-((S)-1-((6-chloro-3-(2-hydroxyphenyl)cinnolin-7-yl)methyl)-3,3-difluoropiperidin-4-yl)piperazin-1-yl)isoxazol-5-yl)-3-methylbutanoyl)-4-hydroxy-N-((R)-1-(4-(4-methylthiazol-5-yl)phenyl)ethyl)pyrrolidine-2-carboxamide]: in test [1], the DC50 was more than 10 nM and the “BRM HiBit Degradation Maximum (%)” value is reported as “A (“A” indicates maximum degradation ≥75%)”. For the same compound, the Dmax in test [2] is less than 50%.

As for `Cc1ncsc1-c1ccc([C@H](C)NC(=O)[C@@H]2C[C@@H](O)CN2C(=O)C(F)(c2cc(N3CC4(CN(c5ccc6cc(-c7ccccc7O)nnc6c5)C4)C3)no2)C(C)C)cc1` (stereo in doubt) [Compound 221, (2S,4R)-1-((R)-2-fluoro-2-(3-(6-(3-(2-hydroxyphenyl)cinnolin-7-yl)-2,6-diazaspiro[3.3]heptan-2-yl)isoxazol-5-yl)-3-methylbutanoyl)-4-hydroxy-N-((S)-1-(4-(4-methylthiazol-5-yl)phenyl)ethyl)pyrrolidine-2-carboxamide], in test [1], the DC50 was less than 10 nM and the “BRM HiBit Degradation Maximum (%)” value is given as “A (“A” indicates maximum degradation ≥75%)”. Also, in test [2], the DC50 is more than 10 nM and the Dmax is more than 50%.

For `Cc1ncsc1-c1ccc([C@H](C)NC(=O)[C@@H]2C[C@@H](O)CN2C(=O)C(C(C)C)n2cc(N3CC4(CN(c5ccc6cc(-c7ccccc7O)nnc6c5)C4)C3)cn2)cc1` (stereo in doubt) [Compound 257, (2S,4R)-4-hydroxy-1-((R)-2-(4-(6-(3-(2-hydroxyphenyl)cinnolin-7-yl)-2,6-diazaspiro[3.3]heptan-2-yl)-1H-pyrazol-1-yl)-3-methylbutanoyl)-N-((S)-1-(4-(4-methylthiazol-5-yl)phenyl)ethyl)pyrrolidine-2-carboxamide], in test [1], the DC50 was less than 10 nM and the “BRM HiBit Degradation Maximum (%)” value is “A (“A” indicates maximum degradation ≥75%)”. For the same compound, the Dmax in test [2] is less than 50%.
